From patent publication US5422341A, “Motilin-like polypeptides with gastrointestinal motor stimulating activity” (Ohmeda Pharmaceutical Products Division Inc., priority 1993, dated 1995)
Like-named read-outs stand apart in the source and are kept apart here. Square brackets hold non-standard residues; d marks the D form. Ends that are not written are not given here. Peptide text beside a SMILES is read from it. * marks the point of attachment. X1 = C[N+](C)(C)[C@@H](Cc1ccccc1)C(=O)*; NMe2Phe = CN(C)[C@@H](Cc1ccccc1)C(=O)*; NMeF = CN[C@@H](Cc1ccccc1)C(=O)O

Tests used:
[1] = type: in vitro ADME, hog; conditions: pH 7
Method: Like most small linear polypeptides, motilin is believed to be metabolized lo by the brush border cells of the kidney. Therefore, kidney homogenate was chosen as the model system for assessing the relative in vivo biostability of the peptides of this invention. All peptides to be studied were incubated in hog kidney (Pel Freeze, Inc., Rogers, Ark.) (2% w/v; final volume=4 ml; buffer=HEPES pH 7.0) at 25° C. Both initial substrate concentration and internal standard (Fmoc-Gly) concentration were 0.5 mg/ml. In order to determine suitable incubation times and sampling intervals, two experiments were conducted with each polypeptide. The first run served as a rough estimate of peptide stability. All sampling was performed in duplicate. Sample volume was 180 μl.
Sample clean-up was performed by addition of 20 μl of 100% TCA (final volume=200 μl; final TCA concentration=10%). The sample was vortexed for from 5 to 10 seconds to ensure equilibration, then centrifuged to spin out the precipitated proteins. Analysis was carried out on a Waters HPLC system with a WISP autoinjector, a 5μ Vydac C-18 analytical column, and a Waters 481 UV detector set at 214 nm. Injection volume was 80 μl. Initial solvent conditions were […] in Milli-Q water with a 35 minute gradient running to 63% acetonitrile/37% (0.1%) TFA at 1 ml/min.
Polypeptide substrate and metabolite peaks were ratioed to the internal standard and the duplicate sample ratios were averaged. The avenge ratio for the peptide substrate was expressed as a percentage and plotted versus time. First-order kinetics was assumed for data treatment. The rate of disappearance of the substrate was calculated using the Enzfitter program (Biosoft). Relative half-lives were determined from the relationship: […]

[2] = test system: canine gastrointestinal tract; assay: Contractile activity in the canine gastrointestinal tract; type: in vivo, dog; conditions: anesthetized dogs, intra-arterial injection to a duodenal segment; amount giving 50% of the calibration response to field stimulation
Method: Mongrel dogs of either sex were anesthetized with sodium pentobarbital 65 mg/kg intravenously. A mid-line incision was made in the abdomen. A duodenal segment was located, the terminal arteries to that segment were identified, and the closest possible artery of the appropriate size was rubbed clean of fat and fascia. A needle of suitable diameter was bent at an angle and the tip inserted in the cleaned artery. The needle was held in position in the artery for approximately 30 seconds until vascular spasm has relaxed and then a catheter assembly was inserted into the artery and tied into position with 000 silk sutures. The fine polyethylene catheter (10-15 cm) was cut to a point at one end with a needle inserted at the other end. The hub of the needle was fitted with a 3-way stopcock and the catheter assembly was filled with heparinized Krebs Ringer bicarbonate containing 10 mM glucose. A bolus of Krebs (free of air) was injected into the arterial catheter and the distribution of blanching in the segment noted. If the area was too large, collateral arteries may be tied off as long as circulation to the area was maintained. A Bass type strain gauge was then sutured to the serosa, and oriented so that circular muscle contractions can be recorded on a Beckman R611 dynograph. Silver wire electrodes were inserted subserosally on either side of the strain gauge and were connected through stimulus isolation units to a Grass S88 electrical stimulator. Electrical field stimulation was applied at 40 V 0.5 ms and 5 pps and the amplitude of the pen recorder was set to contain the contractile response.
All peptides to be injected were dissolved in Krebs and serial dilutions were prepared so that for any concentration the maximum volume to be injected was 1 ml. All solutions except stock Krebs were held on ice for the day of the experiment and discarded at the end of the day. For determination of a dose-response curve, the site was first injected with a bolus of approximately 1 ml of heparinized Krebs to provide a flush control. Peptide agonists (in volumes of 1 ml flushed with 1 ml of Krebs) were injected in logarithmic increments until a response which was maximal in amplitude was obtained. The injection site was then flushed with Krebs containing 0.1% BSA to displace any peptide remaining in the arterial line. For peptides acting at the motilin receptor, care was taken not to inject supramaximal doses as these will induce tachyphylaxis. Therefore, as responses become apparent, 0.3 or 0.5 log unit increments were used. A site was used for a dose-response determination only every 1/2 to 1 hour.
The amplitude of the calibration response to field stimulation in each site was measured and used as 100% for that site. The amplitude of the response to the agonist at each dose was determined, calculated as a % of the calibration response and plotted against the concentration. The ED50 of the response represents the amount of agonist required to produce a response which was 50% of the calibration response.

[3] = molecular target: segments of rabbit duodenum (Oryctolagus cuniculus, UniProt G1T803); assay: Rabbit duodenal smooth muscle strip tissue bath assay; type: cell-based; conditions: negative logarithm of the dose giving 50% of the maximal response to motilin; isotonic contraction of rabbit duodenum segments
How it was run: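 Isotonic contraction of rabbit duodenal segments after 1 h equilibration and 10^-4 M acetylcholine challenge; cumulative compound curve over 10^-11 to 10^-4 M, then 10^-7 M motilin. Runs discarded if final acetylcholine response differed >5%. EC50 at 50% of maximal motilin response, reported as pEC50.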

motilin receptor = molecular target: T1, motilin receptor (Oryctolagus cuniculus, UniProt G1T803); assay: Determination of motilin receptor binding affinity (displacement of [125I-Tyr7, Nle13]motilin(porcine)); parameters: species or system rabbit
T1 construct: from tissue; host or cells: rabbit antral smooth muscle membranes
Method: The motilin receptor binding affinity of the peptides of this invention was determined by using the general procedure of Bormans, Peelers and Vantrappen, Regul. […] Fitting was performed using the iterative least-squares procedure of the SAS-software package (SAS Institute, Inc., Cary, N.C., USA).

[4] = negative logarithm of the concentration displacing 50% of [125I-Tyr7, Nle13]motilin(porcine) from rabbit antral smooth muscle membranes, read-out: pIC50 (converted)

T1 sequence (G1T803 1-400): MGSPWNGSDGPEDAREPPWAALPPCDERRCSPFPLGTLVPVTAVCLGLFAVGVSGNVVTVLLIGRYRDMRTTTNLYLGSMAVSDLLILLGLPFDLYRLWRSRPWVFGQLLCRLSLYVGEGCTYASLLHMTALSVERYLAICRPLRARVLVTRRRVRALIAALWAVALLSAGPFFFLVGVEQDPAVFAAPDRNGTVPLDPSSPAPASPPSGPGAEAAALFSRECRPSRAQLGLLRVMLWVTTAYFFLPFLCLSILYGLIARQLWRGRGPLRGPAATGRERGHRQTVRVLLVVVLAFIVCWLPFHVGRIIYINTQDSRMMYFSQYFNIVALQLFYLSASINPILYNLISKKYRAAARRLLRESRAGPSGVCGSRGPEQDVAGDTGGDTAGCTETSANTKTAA
Chain of segments of rabbit duodenum (G1T803 1-400): as above

Row | Compound | T1/2 [1] | ED50 [2] | pEC50 [3] | IC50 (motilin receptor; [4]) | IC50 (motilin receptor; pIC50, negative logarithm of the concentration displacing 50% of [125I-Tyr7, Nle13]motilin(porcine) from rabbit antral smooth muscle membranes)
1 | CC[C@H](C)[C@H](NC(=O)[C@@H]1CCCN1C(=O)[C@@H](NC(=O)[C@H](Cc1ccccc1)[N+](C)(C)C)C(C)C)C(=O)N[C@@H](Cc1ccccc1)C(=O)N[C@H](C(=O)N[C@@H](Cc1ccc(O)cc1)C(=O)NCC(=O)N[C@@H](CCC(=O)O)C(=O)N[C@@H](CC(C)C)C(=O)N[C@@H](CCC(N)=O)C(=O)N[C@H](CCCNC(=N)N)C(=O)N[C@@H](CC(C)C)C(=O)N[C@@H](CCCCN)C(N)=O)[C@@H](C)O (X1-VPIFTYGELQ[dR]LK-NH2) | 162 | 0.15 nmol | 7.60 | 1.17 nM | 
2 | CC[C@H](C)[C@H](NC(=O)[C@@H]1CCCN1C(=O)[C@@H](NC(=O)[C@H](Cc1ccccc1)NC)C(C)C)C(=O)N[C@@H](Cc1ccccc1)C(=O)N[C@H](C(=O)N[C@@H](Cc1ccc(O)cc1)C(=O)NCC(=O)N[C@@H](CCC(=O)O)C(=O)N[C@@H](CC(C)C)C(=O)N[C@@H](CCC(N)=O)C(=O)N[C@H](CCCNC(=N)N)C(=O)N[C@@H](CC(C)C)C(=O)N[C@@H](CCC(N)=O)C(=O)O)[C@@H](C)O [[N-MePhe^1, D-Arg^12, Leu^13]pMOT(1-14)] (H-[NMeF]VPIFTYGELQ[dR]LQ-OH) | 30 | 0.40 nmol | 7.71 | 1.91 nM | 
3 | CC[C@H](C)[C@H](NC(=O)[C@@H]1CCCN1C(=O)[C@@H](NC(=O)[C@H](Cc1ccccc1)NC)C(C)C)C(=O)N[C@@H](Cc1ccccc1)C(=O)N[C@H](C(=O)N[C@@H](Cc1ccc(O)cc1)C(=O)NCC(=O)N[C@@H](CCC(=O)O)C(=O)N[C@@H](CC(C)C)C(=O)N[C@@H](C)C(=O)N[C@H](CCCNC(=N)N)C(=O)N[C@@H](CC(C)C)C(=O)N[C@H](CCC(N)=O)C(N)=O)[C@@H](C)O (H-[NMeF]VPIFTYGELA[dR]L[dQ]-NH2) | 32.6 | 0.40 nmol | 7.97 | 0.851 nM | 
4 | FVPIFTYGELQRLQ [[Leu^13]pMOT(1-14), reference compound] | 7.5 | 20.4 nmol | 7.55 | 4.37 nM | 
5 | CC[C@H](C)[C@H](NC(=O)[C@@H]1CCCN1C(=O)[C@@H](NC(=O)[C@H](Cc1ccccc1)[N+](C)(C)C)C(C)C)C(=O)N[C@@H](Cc1ccccc1)C(=O)N[C@H](C(=O)N[C@@H](Cc1ccc(O)cc1)C(=O)NCC(=O)N[C@@H](CCC(=O)O)C(=O)N[C@@H](CC(C)C)C(=O)N[C@@H](C)C(=O)N[C@H](CCCNC(=N)N)C(=O)N[C@@H](CC(C)C)C(=O)N[C@@H](CCC(N)=O)C(N)=O)[C@@H](C)O (X1-VPIFTYGELA[dR]LQ-NH2) | 131.9 | 0.026 nmol |  |  | 
6 | CC[C@H](C)[C@H](NC(=O)[C@@H]1CCCN1C(=O)[C@@H](NC(=O)[C@@H](N)Cc1ccccc1)C(C)C)C(=O)N[C@@H](Cc1ccccc1)C(=O)N[C@H](C(=O)N[C@@H](Cc1ccc(O)cc1)C(=O)NCC(=O)N[C@@H](CCC(=O)O)C(=O)N[C@@H](CC(C)C)C(=O)N[C@@H](CCC(N)=O)C(=O)N[C@@H](CCCNC(=N)N)C(=O)N[C@@H](CC(C)C)C(=O)N[C@@H](CCC(N)=O)C(=O)N[C@@H](CCC(=O)O)C(=O)N[C@@H](CCCCN)C(=O)N[C@@H](CCC(=O)O)C(=O)N[C@@H](CCCNC(=N)N)C(=O)N[C@@H](CC(N)=O)C(=O)N[C@@H](CCCCN)C(=O)NCC(=O)N[C@@H](CCC(N)=O)C(=O)O)[C@@H](C)O [[Leu^13]pMOT(1-22), reference compound] | 30.2 | 0.17 nmol | 8.13 |  | 0.661 nM
7 | CC[C@H](C)[C@H](NC(=O)[C@@H]1CCCN1C(=O)[C@@H](NC(=O)[C@H](Cc1ccccc1)[N+](C)(C)C)C(C)C)C(=O)N[C@@H](Cc1ccccc1)C(=O)N[C@H](C(=O)N[C@@H](Cc1ccc(O)cc1)C(=O)NCC(=O)N[C@@H](CCC(=O)O)C(=O)N[C@@H](CC(C)C)C(=O)N[C@@H](C)C(=O)N[C@H](CCCNC(=N)N)C(=O)N[C@@H](CC(C)C)C(=O)N[C@@H](CCCCN)C(N)=O)[C@@H](C)O (X1-VPIFTYGELA[dR]LK-NH2) | 125 | 0.12 nmol | 7.64 | 1.29 nM | 
8 | CC[C@H](C)[C@H](NC(=O)[C@@H]1CCCN1C(=O)[C@@H](NC(=O)[C@H](Cc1ccccc1)NC)C(C)C)C(=O)N[C@@H](Cc1ccccc1)C(=O)N[C@H](C(=O)N[C@@H](Cc1ccc(O)cc1)C(=O)NCC(=O)N[C@@H](CCC(=O)O)C(=O)N[C@@H](CC(C)C)C(=O)N[C@@H](CCC(N)=O)C(=O)N[C@H](CCCNC(=N)N)C(=O)N[C@@H](CC(C)C)C(=O)N[C@@H](CCCCN)C(N)=O)[C@@H](C)O (H-[NMeF]VPIFTYGELQ[dR]LK-NH2) | 41 | 0.025 nmol |  |  | 
9 | CC[C@H](C)[C@H](NC(=O)[C@@H]1CCCN1C(=O)[C@@H](NC(=O)[C@H](Cc1ccccc1)N(C)C)C(C)C)C(=O)N[C@@H](Cc1ccccc1)C(=O)N[C@H](C(=O)N[C@@H](Cc1ccc(O)cc1)C(=O)NCC(=O)N[C@@H](CCC(=O)O)C(=O)N[C@@H](CC(C)C)C(=O)N[C@@H](C)C(=O)N[C@H](CCCNC(=N)N)C(=O)N[C@@H](CC(C)C)C(=O)N[C@H](CCCCN)C(N)=O)[C@@H](C)O (NMe2Phe-VPIFTYGELA[dR]L[dK]-NH2) | 47 | 0.35 nmol | 7.69 | 1.45 nM | 
10 | CC[C@H](C)[C@H](NC(=O)[C@@H]1CCCN1C(=O)[C@@H](NC(=O)[C@H](Cc1ccccc1)NC)C(C)C)C(=O)N[C@@H](Cc1ccccc1)C(=O)N[C@H](C(=O)N[C@@H](Cc1ccc(O)cc1)C(=O)NCC(=O)N[C@@H](CCC(=O)O)C(=O)N[C@@H](CC(C)C)C(=O)N[C@@H](C)C(=O)N[C@H](CCCNC(=N)N)C(=O)N[C@@H](CC(C)C)C(=O)N[C@@H](CCCCN)C(N)=O)[C@@H](C)O (H-[NMeF]VPIFTYGELA[dR]LK-NH2) | 34.3 | 0.30 nmol | 8.01 | 0.468 nM | 
11 | CC[C@H](C)[C@H](NC(=O)[C@@H]1CCCN1C(=O)[C@@H](NC(=O)[C@H](Cc1ccccc1)[N+](C)(C)C)C(C)C)C(=O)N[C@@H](Cc1ccccc1)C(=O)N[C@H](C(=O)N[C@@H](Cc1ccc(O)cc1)C(=O)NCC(=O)N[C@@H](CCC(=O)O)C(=O)N[C@@H](CC(C)C)C(=O)N[C@@H](CCC(N)=O)C(=O)N[C@H](CCCNC(=N)N)C(=O)N[C@@H](CC(C)C)C(=O)N[C@@H](CCC(N)=O)C(N)=O)[C@@H](C)O (X1-VPIFTYGELQ[dR]LQ-NH2) | 95 | 0.017 nmol |  |  | 
